The target in one assay is T1, Olfr110 (Mus musculus, UniProt A2RT31).
T1 construct: Full-length odorant receptor genes from mouse and human genomic DNA were amplified using appropriate primers; Lucy (N); Flag (N); Rho (N); expressed in transfected cells; host or cells: Hana3A cells, co-transfected with RTP1S, pCRELuc and pRL-SV40
T1 sequence (A2RT31 1-317): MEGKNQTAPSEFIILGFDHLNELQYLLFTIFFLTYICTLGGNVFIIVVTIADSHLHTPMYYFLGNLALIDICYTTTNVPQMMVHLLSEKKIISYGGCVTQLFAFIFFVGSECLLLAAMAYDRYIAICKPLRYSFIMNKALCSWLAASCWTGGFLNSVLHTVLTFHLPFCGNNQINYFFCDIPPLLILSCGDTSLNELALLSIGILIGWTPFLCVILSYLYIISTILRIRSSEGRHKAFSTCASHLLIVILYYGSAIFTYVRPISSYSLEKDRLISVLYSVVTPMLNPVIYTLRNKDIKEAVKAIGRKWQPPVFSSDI
The experiment in a line: Luciferase assay in Hana3A cells, Olfr110. It counts as cell-based. The following applies: for reactivity of Olfr110 (relative luciferase activity): Hana3A cells.

The next assay concerns Olfr111. The assay is described as follows: Luciferase assay in Hana3A cells, Olfr111. It counts as cell-based, mouse. The following applies: for reactivity of Olfr111 (relative luciferase activity): Hana3A cells.
The test system of assay [1] is primary microglia. The experiment in a line: Active oxygen (ROS) production in primary microglia. It counts as cell-based, mouse. The following applies: for ROS (active oxygen) generation induced by 2-PF after inhibitor pretreatment: then 2-PF. How it is done: Superoxide concentrations were calculated by measuring the degree of decrease in cytochrome c using a VersaMax microplate reader (Babior et al., 1973). Microglia were cultured on a 96-well plate at a concentration of 1.0×10^5 cells/well, and the microglia were activated by a 10 μM ATP solution containing 2-pentylfuran and cytochrome c, or a solution of Sup mixed with cytochalasin B (5 μM; #C66762; Sigma Aldrich). The resulting ROS concentration was measured by changes in light absorption at 550 nm at intervals of 1 minute for 25 minutes.
Active oxygen levels were measured using 2′,7′-dichlorodihydrofluorescein diacetate (DCF-DA, #D6883; Sigma Aldrich) using a method that had undergone minor modifications from the existing method. (Bae et al., 2001). More specifically, the primary microglia were treated with 10 μM DCF-DA in a 24-well plate (5.0×10^5 cells/well) […] at a temperature of 37° C. for 30 minutes. One plate was treated with 2-PF and one was not. Cells in each well were measured by a flow cytometer (FACS Accuri™ C6; BD Biosciences). MFI was measured in the same manner as described above.

Assay [2] has as its system primary microglia. The assay is described as follows: Cytokine mRNA (qRT-PCR) and protein (ELISA) in microglia. It counts as cell-based, mouse. The following applies: then 2-PF. How it is done:
In the present example, microglia or astrocytes were primarily extracted from the cerebral cortex of E18.5 mouse embryos (Tamashiro et al., 2012) and then cultured as in Example 1. More specifically, the cortex of mouse embryos was collected and then stored in a cold supernatant (#14170-112; Thermo Fisher Scientific) and pretreated at 37° C. in a 0.25% trypsin solution (#15090-046; Thermo Fisher Scientific) for 20 minutes. Then, cells were plated in a minimal nutrient medium supplemented with 10% FBS (#SH30919.03; Hyclone), 2 mM L-glutamine (#25030-081; Thermo Fisher Scientific), 0.04% glucose (#G7021; Sigma Aldrich), and 1% penicillin/streptomycin (#15140-122; Thermo Fisher Scientific), and then filtered using a 40 μm strainer (#352340; Thermo Fisher Scientific). Microglia were plated at a density of 1.2×10^7 cells in a T75 flask coated with poly-D-lysine (#P7280; Sigma Aldrich). After 2 hours, the mixture was transferred to a Dulbecco's modified eagle medium (DMEM; #SH30243.01; Hyclone), and the medium was replaced every 3 days for 2 weeks. In order to separate the microglia from this mixed solution, first, the mixed solution was shaken at 37° C. at 150 rpm for 2 hours, then the mixed solution containing microglia was separately extracted from the top and transferred, and then the microglia were isolated by centrifugation at 1300 rpm at room temperature for 5 minutes. The isolated microglia were transferred to a culture medium. After the microglia were transferred, the microglia were completely removed by shaking the remaining mixed solution at 160 rpm for 1 day for culturing. Then, astrocytes were isolated by treatment with 0.25% trypsin and again cultured in a T75 flask for 4 days for collection. The purity of the collected microglia and astrocytes was evaluated by qRT-PCR analysis and by immunocytochemistry using Iba-1 and Gfap, which are a marker gene and a protein, respectively.
For the measurement of mRNA, RNA was isolated from red blood cells, microglia, astrocytes, Hana3A cells, or cerebral cortical cells using the MagNa Lyser (Roche Molecular Diagnostics) using TRIzol reagent (Invitrogen, Carlsbad, CA.) according to the manufacturer's protocol. Then, cDNA was generated through reverse transcription using the isolated mRNA (using PrimeScript™ 1st str and cDNA Synthesis kit—#6110; Takara Bio Inc). This process was quantitatively measured in real time through quantitative real-time-PCR (using LightCycler® 480 SYBR Green I Master). The measured values were calculated using the 2-ΔΔCt method.
The expression levels of Tnf, il6, and Il1b cytokines secreted from microglia were measured according to the manufacturer's protocol. More specifically, the expression levels were measured by ELISA 24 hours after treatment with 2-PF or a cell supernatant. […]

Assay [3] deals with primary microglia. The assay is described as follows: Western blot of phosphorylated signalling proteins in primary microglia. It counts as cell-based, mouse. As to conditions: inhibitor pre-culture, then 2-PF. Here is the method: Cells and tissues were prepared using the T-PER® reagent (#78510; Thermo Fisher Scientific) with protease inhibitors (#04-693-116-001; Roche Molecular Diagnostics), DMSF (Sigma-Aldrich) and lysed using the MagNA Lyser (Roche Molecular Diagnostics). A total protein extract was quantified by the Bradford assay. The sample was dissolved in 7.5% SDS-PAGE or 4 to 20% gradient mini-PROTEIN TGX Precast Gels (#456-1064; Bio-Rad Laboratories), and then blotted onto nitrocellulose membranes (#10600002; GE Healthcare). The membrane was then blocked in 5% skimmed milk powder, TBST, 0.1% TWEEN® 20 (#P9416; Sigma-Aldrich) and Tris-buffered saline for 1 hour, and then incubated with primary antibodies at 4° C. overnight. The antibodies are as follows: Olfr110 (36 kDa; 1:1,000; #ab177327; Abcam), anti rhodopsin (39 kDa; 1:1,000; #MABN15; Millipore), CREB (43 kDa; 1:1,000; #9197; Cell Signaling Technology), phospho-CREB (43 kDa; 1:1,000; #9198; Cell Signaling Technology), ERK (44 kDa; 1:1,000; #sc094; Santa Cruz), phospho-ERK (42, 44 kDa; 1:1,000; #sc-7383; Santa Cruz), phospho-Akt (60 kDa; 1:500; sc-293125; Santa Cruz), phospho-JNK (46, 54 kDa; 1:500; sc-6254; Santa Cruz), phosphor-p38 (38 kDa; 1:1,000; sc-7973; Santa Cruz), or beta-Actin (45 kDa; 1:10,000; #4967; Cell Signaling Technology). Furthermore, an isotype-matched horseradish peroxidase-conjugated secondary antibody was used at 1:100,000 with anti-rabbit in TBST (#711-035-152; Jackson ImmunoResearch) and 1:40,000 with anti-mouse (#715-035-150; Jackson ImmunoResearch) at room temperature for 2 hours. As an immunoreactive protein band, SuperSignal™ West Pico Chemiluminescent Substrate (#34080; Thermo Fisher Scientific) was used.
A general note: In western blotting, separated proteins are transferred to a membrane and probed.

Assay [4] deals with Olfr920, Olfr1417, and Olfr99. The following applies: Hana3A cells; MOCK also responded.
Procedure: Next, Hana3A cells were transfected with RTP1S, and their location and presence on the cell membrane were confirmed as previously described (Behrens et al., 2009; Zhuang and Matsunami, 2008). Such transfection was performed using Lipofectamine 2000 (#11668-019; Thermo Fisher Scientific) according to the manufacturer's instructions. More specifically, the transfected cells were grown on a coverslip (#0101050; Marienfeld) coated with poly D lysine (10 μg/ml; #P7280; Sigma Aldrich). Next, the cells were washed with a warm PBS solution and cooled with ice for 30 minutes to block endocytosis. […] The cells were then incubated with normal horse serum (#008-000-121; Jackson ImmunoResearch) at room temperature for 1 hour. The resulting cells were incubated with mouse anti rhodopsin (anti-Rho; 1:1,000; #MABN15; Millipore) or rabbit anti Olfr110 (#ab177327; Abcam) at 4° C. overnight. […] The expression of heterologous odorant receptors was analyzed with a confocal laser scanning microscope LSM700 and ZEN software (Zeiss). […] Each plate was analyzed using Lipofectamine 2000 (#11668-019; Thermo Fisher Scientific) according to the manufacturer's protocol. […] The amount of light emitted was measured using a SpectraMax L microplate reader (Molecular Devices).

Procedure for Olfr110: (§1) Next, Hana3A cells were transfected with RTP1S, and their location and presence on the cell membrane were confirmed as previously described (Behrens et al., 2009; Zhuang and Matsunami, 2008). Such transfection was performed using Lipofectamine 2000 (#11668-019; Thermo Fisher Scientific) according to the manufacturer's instructions. More specifically, the transfected cells were grown on a coverslip (#0101050; Marienfeld) coated with poly D lysine (10 μg/ml; #P7280; Sigma Aldrich). Next, the cells were washed with a warm PBS solution and cooled with ice for 30 minutes to block endocytosis. […] The cells were then incubated with normal horse serum (#008-000-121; Jackson ImmunoResearch) at room temperature for 1 hour. […] After being washed with PBS, the cells were treated with a Cy3-conjugated donkey anti-mouse antibody (1:1,000; #715-165-150; Jackson ImmunoResearch), an Alexa488-conjugated donkey anti-mouse antibody (1:1,000; #715-545-150; Jackson ImmunoResearch), or a Cy3-conjugated donkey anti-rabbit antibody (1:1,000; #711-165-152; Jackson ImmunoResearch) at room temperature for 1 hour. The cells were mounted with a Vectashield fluorescent mounting medium containing DAPI (#H-1200; Vector Laboratories). The expression of heterologous odorant receptors was analyzed with a confocal laser scanning microscope LSM700 and ZEN software (Zeiss).
(§2) The Dual-Glo luciferase assay system (#E2940; Promega) was used for odorant receptor ligand screening. More specifically, Hana3A cells were streaked and spread on a white polystyrene 96-well plate (#353296; BD Biosciences) one day before transfection. pCRELuc (1 μg; #219076; Agilent Technologies), pRL-SV40 (1 μg; #E2231; Promega), RTP1S (1 μg), and OR (6 μg; or Mock) vectors were transfected for 24 hours in each plate. Each plate was analyzed using Lipofectamine 2000 (#11668-019; Thermo Fisher Scientific) according to the manufacturer's protocol. Transfected cells were stimulated in CD293 medium (#11913-019; Thermo Fisher Scientific) at 37° C. for 4 hours using diluted odorants at various concentrations. The activity of luciferase was normalized by the activity of Renilla luciferase. The amount of light emitted was measured using a SpectraMax L microplate reader (Molecular Devices).
Procedure for Olfr111: as §1, §2

Consider `Cc1ccoc1C` [2,3-dimethylfuran], for which the “binding to Olfr110” value on Olfr110 was “do not bind”. For the same compound, in the assay on Olfr111, the “binding to Olfr111” value is given as “do not bind”.
Regarding `CCc1ccco1` [2-EF, 2-ethylfuran], at Olfr110, the “binding to Olfr110” value is given as “do not bind” and the “mode of action at Olfr110” value is listed as “competitive inhibitor (antagonist)”. Moreover, the “binding to Olfr111” value in the assay with Olfr111 was “do not bind”. Besides, in the assay on primary microglia [1] (2-EF pretreated at 0, 100, 300, 500 μM), the “active oxygen produced by Sup MOI of 100” value is given as “decreased as the concentration of 2-EF increased”. The “active oxygen produced by Sup MOI 5 plus 500 μM 2-PF” value in the assay on primary microglia [1] (2-ethylfuran 0, 100, 300, 500 μM simultaneously) is given as “the higher the concentration of 2-EF added, the lower the concentration of active oxygen produced”.
In the case of `CCCCc1ccco1` [2-butylfuran], the “reactivity of Olfr110 (relative luciferase activity)” value on Olfr110 is given as “showed reactivity”. The “reactivity of Olfr111 (relative luciferase activity)” value with Olfr111 is “showed reactivity”.
On to `CCCCCCCc1ccco1` [2-heptylfuran], for which, on Olfr110, the “binding to Olfr110” value is on record as “do not bind”. The “binding to Olfr111” value in the assay on Olfr111 is “do not bind”.
As to `CCCCCCc1ccco1` [2-hexylfuran], on Olfr110, the “binding to Olfr110” value is “do not bind” and the “reactivity of Olfr110 (relative luciferase activity)” value is “showed reactivity”. Moreover, in the assay on Olfr111, the “binding to Olfr111” value is given as “do not bind” and the “reactivity of Olfr111 (relative luciferase activity)” value is “showed reactivity”.
On to `Cc1ccco1` [2-methylfuran], for which the “binding to Olfr110” value on Olfr110 is on record as “do not bind”. Also, the “binding to Olfr111” value with Olfr111 was “do not bind”.
Turning to `CCCc1ccco1` [2-propylfuran], the “reactivity of Olfr110 (relative luciferase activity)” value at Olfr110 was “showed reactivity”. Further, the “reactivity of Olfr111 (relative luciferase activity)” value in the assay on Olfr111 is listed as “showed reactivity”.
Turning to `CC(C)(C)c1ccco1` [2-t-butylfuran], the “reactivity of Olfr110 (relative luciferase activity)” value on Olfr110 was “showed reactivity”. Besides, in the assay with Olfr111, the “reactivity of Olfr111 (relative luciferase activity)” value is listed as “showed reactivity”.
Take `O=S(=O)(NCCNC/C=C/c1ccc(Br)cc1)c1cccc2cnccc12` [H-89]: the “Tnf and Il6 cytokine levels induced by 2-PF after inhibitor pretreatment” value in the assay with primary microglia [2] is reported as “great decrease”.
As to `Nc1ncnc2c1ncn2C1CCCO1` (stereo not drawn) [SQ22536], the “Tnf and Il6 cytokine levels induced by 2-PF after inhibitor pretreatment” value in the assay with primary microglia [2] is listed as “great decrease”. In addition, in the assay with primary microglia [3], the “CREB and ERK phosphorylation after inhibitor pre-culture and 2-PF” value is “greatly decreased”.
With `COc1ccc2c(c1)CC[C@@H]1[C@@H]2CC[C@]2(C)[C@@H](NCCCCCCN3C(=O)C=CC3=O)CC[C@@H]12` [U73122], the “Tnf and Il6 cytokine levels induced by 2-PF after inhibitor pretreatment” value in the assay on primary microglia [2] was “relatively less decrease”. For the same compound, the “ROS (active oxygen) generation induced by 2-PF after inhibitor pretreatment” value in the assay with primary microglia [1] is on record as “completely inhibited”.
Take `CCO` [ethanol]: in assay [4], the “reactivity of the remaining three receptors (luciferase)” value is given as “non-specific reaction”.
Consider `O=C1OC2(c3ccccc31)c1ccc(O)c(O)c1Oc1c2ccc(O)c1O` [gallein], for which the “ROS (active oxygen) generation induced by 2-PF after inhibitor pretreatment” value in the assay on primary microglia [1] is “similarly inhibited”.
Consider `COc1cccc(-c2cc(=O)c3ccccc3o2)c1N` [pd98059], for which the “Tnf and Il6 cytokine levels induced by 2-PF after inhibitor pretreatment” value with primary microglia [2] was “relatively less decrease”. Moreover, the “CREB and ERK phosphorylation after inhibitor pre-culture and 2-PF” value with primary microglia [3] is on record as “greatly decreased”.

Values taken from patent publication US12396977B2, “Composition for treating degenerative brain diseases, containing 2-pentylfuran as active ingredient” (DAEGU GYEONGBUK INSTITUTE OF SCIENCE AND TECHNOLOGY, priority 2019, dated 2025).
